Reference: paper PMC3114813 (Environmental Health Perspectives, 2011)
“Also recorded” adds a separate entry of the source. Where two headings read alike, the source gives them in different places.

Tests used:
yeast = assay: YAS, cytotoxicity (turbidity at 620 nm); type: cell-based; settings: for Cytotoxic EC20 (μM) YAS: EC20 = concentration that produces a 20% effect, yeast turbidity
Description: The methods for the YAS have been described previously ([Sohoni and Sumpter 1998]). Briefly, stimulation of the transfected AR causes a color change in the media, which is measured by absorbance at 540 nm (Labsystems Multiskan Multisoft, Vienna, VA, USA). Plates were also measured at 620 nm to measure cell growth (turbidity) to check for any cytotoxic effects that may have occurred. Pesticides were coincubated with DHT (6.4 nM). […] Incubation time was 53 hr at 28°C. […] Pesticide serial dilutions were tested in duplicate over two plates and were tested in two separate experiments.

MDA-kb2 cells = settings: for Cytotoxic EC20 (μM) MDA-kb2: EC20 = concentration that produces a 20% effect
Description: (§1) MDA-kb2 cells are human breast cancer cells stably transfected with a firefly luciferase reporter gene that is driven by an androgen-response element–containing promoter ([Wilson et al. 2002]). Details of the modified assay were published previously ([Ermler et al. 2010]). Briefly, cells were seeded at a concentration of 1 × 10^5 cells/mL in phenol red–free Leibowitz-15 medium (Invitrogen Ltd., Paisley, UK) containing 10% (charcoal-stripped) fetal calf serum (Invitrogen Ltd.) in white luminometer plates and allowed to attach for 24 hr. Cells were then exposed to eight serial dilutions of selected pesticides with or without DHT (0.25 nM). After 24 hr, luciferase activity was determined with SteadyGlo assay reagent (Promega UK Ltd., Southampton, Hampshire, UK) and measured in a plate reader (FLUOstar Optima, BMG Labtech GmbH, Offenburg, Germany). […] All concentrations were tested in duplicate over two plates, and each pesticide was measured at least twice in separate experiments. For comparative purposes, luminescence was normalized to DHT alone at coexposure concentration (maximum response, 100%) and solvent-only (ethanol) controls (minimum response, 0%). […] Pesticides were initially tested over a concentration range of 0.64 nM–50 μM (5× dilutions) as a range-finding exercise. Subsequently, the concentration ranges were modified to reflect the potency and toxicity of each individual compound. […] Sixty percent of the pesticides were repeat tested using the same product but with new stock solutions and by a different experimenter.
(§2) To analyze antiandrogenic action, raw luminescence readings were normalized on a plate-by-plate basis to the means of the positive DHT controls (n = 8) and the solvent controls (n = 8) ([Ermler et al. 2010]). […] Specifically, a variety of nonlinear regression models were fitted independently to the same data set, and the best-fitting model was selected using a statistical goodness-of-fit criterion. […] Data considered to be statistically significant at p < 0.05 were analyzed using the best-fit approach as described above. All statistical analysis was performed using SAS statistical software (SAS Institute Inc., Cary, NC, USA). From the best-fitting model, we derived inhibitory concentrations for antiandrogenicity and effect concentrations for cytotoxicity.

androgen receptor (AR) [1] = target: T1, androgen receptor (AR) (Homo sapiens, UniProt P10275, Q868H); type: cell-based
T1 construct: MDA-kb2 cells are human breast cancer cells stably transfected with a firefly luciferase reporter gene; endogenous in cells; host or cells: MDA-kb2 (human breast cancer cells)
T1 sequence (P10275 1-920 Q868H): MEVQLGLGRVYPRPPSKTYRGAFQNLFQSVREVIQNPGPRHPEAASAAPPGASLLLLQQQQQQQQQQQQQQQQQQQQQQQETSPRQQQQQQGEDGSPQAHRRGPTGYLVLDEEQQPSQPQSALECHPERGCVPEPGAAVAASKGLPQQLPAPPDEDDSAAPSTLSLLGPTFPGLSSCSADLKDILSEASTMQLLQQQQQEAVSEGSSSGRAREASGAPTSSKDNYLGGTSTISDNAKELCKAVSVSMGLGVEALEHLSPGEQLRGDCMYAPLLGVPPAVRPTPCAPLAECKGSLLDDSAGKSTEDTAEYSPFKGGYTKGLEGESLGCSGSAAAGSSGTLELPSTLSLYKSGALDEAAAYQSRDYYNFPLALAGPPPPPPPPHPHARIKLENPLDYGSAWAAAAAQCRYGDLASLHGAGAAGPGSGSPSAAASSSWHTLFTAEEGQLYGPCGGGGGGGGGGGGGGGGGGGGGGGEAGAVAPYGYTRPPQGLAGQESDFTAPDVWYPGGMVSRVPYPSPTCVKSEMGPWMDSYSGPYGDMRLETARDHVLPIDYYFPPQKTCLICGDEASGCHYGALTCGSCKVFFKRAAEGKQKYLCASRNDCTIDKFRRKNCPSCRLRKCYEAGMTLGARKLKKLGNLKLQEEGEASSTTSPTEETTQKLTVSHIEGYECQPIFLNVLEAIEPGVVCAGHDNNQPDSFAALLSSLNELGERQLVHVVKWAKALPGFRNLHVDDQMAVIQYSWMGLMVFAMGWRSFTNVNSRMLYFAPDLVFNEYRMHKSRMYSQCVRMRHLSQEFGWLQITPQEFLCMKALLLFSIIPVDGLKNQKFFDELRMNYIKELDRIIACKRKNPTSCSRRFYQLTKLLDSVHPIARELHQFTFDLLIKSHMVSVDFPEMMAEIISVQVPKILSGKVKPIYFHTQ
Description: as §1, §2

androgen receptor (AR) [2] = target: T1, androgen receptor (AR); assay: cell-based; settings: for IC20: MDA-kb2, read-out: Antiandrogen IC20 (μM) MDA-kb2
Description: as §1, §2

[3] = androgenic in the absence of DHT, Neg = no response was observed
[4] = total exposure score / IC20 (MDA-kb2), recalculated using experimental data

Compound: Cc1c(COC(=O)[C@@H]2[C@H](/C=C(\Cl)C(F)(F)F)C2(C)C)cccc1-c1ccccc1 (racemic) [Bifenthrin]
- Cytotoxic EC20 (μM) YAS (yeast): > 200 µM
- Cytotoxicity in the MDA-kb2 assay (in words) (MDA-kb2 cells): cytotoxic
- Cytotoxic EC20 (μM) MDA-kb2 (MDA-kb2 cells): 22.2 µM

Compound: COP(=S)(OC)SCn1nnc2ccccc2c1=O [Azinphos-methyl]
- Androgen EC20 (μM) MDA-kb2 (androgen receptor (AR) [1]; [3]): Neg
- Cytotoxic EC20 (μM) YAS (yeast): > 150 µM
- Cytotoxic EC20 (μM) MDA-kb2 (MDA-kb2 cells): 33.9 µM
- Antiandrogenic activity in the MDA-kb2 assay (in words) (androgen receptor (AR) [2]; MDA-kb2 / 'our assay'): antiandrogenic; also recorded: in vitro AR antagonists

Compound: CO/C=C(/C(=O)OC)c1ccccc1Oc1cc(Oc2ccccc2C#N)ncn1 [Azoxystrobin]
- Androgen EC20 (μM) MDA-kb2 (androgen receptor (AR) [1]; [3]): Neg
- Cytotoxic EC20 (μM) MDA-kb2 (MDA-kb2 cells): 2.9 µM
- Antiandrogen IC20 (μM) MDA-kb2 (androgen receptor (AR) [2]): Neg

Compound: CC(C)OC(=O)C(O)(c1ccc(Br)cc1)c1ccc(Br)cc1 [Bromopropylate]
- Androgen EC20 (μM) MDA-kb2 (androgen receptor (AR) [1]; [3]): Neg
- Cytotoxic EC20 (μM) MDA-kb2 (MDA-kb2 cells): 27.2 µM
- IC20 (androgen receptor (AR) [2]): 0.54 µM
- Antiandrogenic activity in the MDA-kb2 assay (in words) (androgen receptor (AR) [2]; MDA-kb2 / 'our assay'): in vitro AR antagonists
- ERR (environmental relevance ratio) (androgen receptor (AR) [2]; [4]): 24.1

Compound: CC(C)OC(=O)Nc1cccc(Cl)c1 [Chlorpropham]
- Cytotoxic EC20 (μM) YAS (yeast): > 40 µM
- Cytotoxic EC20 (μM) MDA-kb2 (MDA-kb2 cells): > 50 µM

Compound: Cc1cc(C2CC2)nc(Nc2ccccc2)n1 [Cyprodinil]
- Cytotoxic EC20 (μM) MDA-kb2 (MDA-kb2 cells): > 50 µM

Compound: OC(c1ccc(Cl)cc1)(c1ccc(Cl)cc1)C(Cl)(Cl)Cl [Dicofol]
- Cytotoxic EC20 (μM) MDA-kb2 (MDA-kb2 cells): 29.0 µM

Compound: CC1COC(Cn2cncn2)(c2ccc(Oc3ccc(Cl)cc3)cc2Cl)O1 (stereo not shown) [Difenoconazole]
- Cytotoxic EC20 (μM) YAS (yeast): 0.109 µM
- Cytotoxicity in the YAS assay (in words) (yeast): cytotoxic
- Cytotoxic EC20 (μM) MDA-kb2 (MDA-kb2 cells): 2.91 µM

Compound: O=S1OCC2C(CO1)C1(Cl)C(Cl)=C(Cl)C2(Cl)C1(Cl)Cl (stereo not shown) [Endosulfan]
- Androgen EC20 (μM) MDA-kb2 (androgen receptor (AR) [1]): Neg
- Cytotoxic EC20 (μM) MDA-kb2 (MDA-kb2 cells): 33.8 µM
- Antiandrogenic activity in the MDA-kb2 assay (in words) (androgen receptor (AR) [2]): in vitro AR antagonists
- ERR (environmental relevance ratio) (androgen receptor (AR) [2]): 3.1
- IC20 (androgen receptor (AR) [2]): 6.05 µM

Compound: COP(=S)(OC)Oc1ccc([N+](=O)[O-])c(C)c1 [Fenitrothion]
- Cytotoxic EC20 (μM) MDA-kb2 (MDA-kb2 cells): > 50 µM

Compound: COC(=O)N(C(=O)N1CO[C@@]2(C(=O)OC)Cc3cc(Cl)ccc3C2=N1)c1ccc(OC(F)(F)F)cc1 [Indoxacarb]
- Androgen EC20 (μM) MDA-kb2 (androgen receptor (AR) [1]; [3]): Neg
- Cytotoxic EC20 (μM) MDA-kb2 (MDA-kb2 cells): 11.3 µM
- Antiandrogen IC20 (μM) MDA-kb2 (androgen receptor (AR) [2]): Neg

Compound: C#CCOc1ccc(CCNC(=O)C(OCC#C)c2ccc(Cl)cc2)cc1OC (stereo not shown) [Mandipropamid]
- Androgen EC20 (μM) MDA-kb2 (androgen receptor (AR) [1]; [3]): Neg
- Cytotoxic EC20 (μM) MDA-kb2 (MDA-kb2 cells): 8.92 µM
- Antiandrogen IC20 (μM) MDA-kb2 (androgen receptor (AR) [2]): Neg

Compound: CNC(=O)Oc1cc(C)c(SC)c(C)c1 [Methiocarb]
- Androgen EC20 (μM) MDA-kb2 (androgen receptor (AR) [1]; [3]): Neg
- Cytotoxic EC20 (μM) MDA-kb2 (MDA-kb2 cells): > 46 µM
- IC20 (androgen receptor (AR) [2]): 6.82 µM
- ERR (environmental relevance ratio) (androgen receptor (AR) [2]; [4]): 2.5

Compound: O=C(NC(=O)c1c(F)cccc1F)Nc1ccc(OC(F)(F)C(F)OC(F)(F)F)c(Cl)c1 (stereo not shown) [Novaluron]
- Cytotoxic EC20 (μM) MDA-kb2 (MDA-kb2 cells): > 50 µM

Compound: Oc1ccccc1-c1ccccc1 [O-Phenylphenol]
- Cytotoxic EC20 (μM) MDA-kb2 (MDA-kb2 cells): > 50 µM

Compound: CCCSP(=O)(OCC)Oc1ccc(Br)cc1Cl (stereo not shown) [Profenofos]
- Cytotoxic EC20 (μM) MDA-kb2 (MDA-kb2 cells): 8.61 µM

Compound: C#CCOS(=O)OC1CCCCC1Oc1ccc(C(C)(C)C)cc1 (stereo not shown) [Propargite]
- Cytotoxic EC20 (μM) MDA-kb2 (MDA-kb2 cells): 0.487 µM

Compound: COC(=O)N(OC)c1ccccc1COc1ccn(-c2ccc(Cl)cc2)n1 [Pyraclostrobin]
- Cytotoxic EC20 (μM) MDA-kb2 (MDA-kb2 cells): 0.089 µM

Compound: Cc1cc(C)nc(Nc2ccccc2)n1 [Pyrimethanil]
- Cytotoxic EC20 (μM) YAS (yeast): 167 µM
- Cytotoxicity in the YAS assay (in words) (yeast): cytotoxic
- Cytotoxic EC20 (μM) MDA-kb2 (MDA-kb2 cells): > 125 µM

Compound: Fc1ccc(Oc2ccnc3cc(Cl)cc(Cl)c23)cc1 [Quinoxyfen]
- Cytotoxic EC20 (μM) YAS (yeast): > 75 µM
- Cytotoxic EC20 (μM) MDA-kb2 (MDA-kb2 cells): 10.1 µM

Compound: CCOC(=O)OC1=C(c2cc(C)ccc2C)C(=O)N[C@]12CC[C@@H](OC)CC2 [Spirotetramat]
- Cytotoxic EC20 (μM) MDA-kb2 (MDA-kb2 cells): > 50 µM

Compound: CCCN(CC)CC1COC2(CCC(C(C)(C)C)CC2)O1 (stereo not shown) [Spiroxamine]
- Cytotoxic EC20 (μM) MDA-kb2 (MDA-kb2 cells): 9.29 µM

Compound: C=CC1(C)OC(=O)N(c2cc(Cl)cc(Cl)c2)C1=O (stereo not shown) [Vinclozolin]
- Cytotoxic EC20 (μM) MDA-kb2 (MDA-kb2 cells): > 50 µM

Compound: CC(C)C(=O)Nc1ccc([N+](=O)[O-])c(C(F)(F)F)c1 [flutamide, reference compound]
- Cytotoxicity in the MDA-kb2 assay (in words) (MDA-kb2 cells): overlap of toxic effects on the cells with antiandrogenic activity

Compound: ClC(Cl)=C(c1ccc(Cl)cc1)c1ccc(Cl)cc1 [p,p′-DDE, p,p′-1,1-bis-(4-chlorophenyl)-2,2-dichloroethene]
- Cytotoxic EC20 (μM) MDA-kb2 (MDA-kb2 cells): > 50 µM

Compound: CC1(C)C(/C=C(\Cl)C(F)(F)F)C1C(=O)OC(C#N)c1cccc(Oc2ccccc2)c1 (stereo not shown) [λ-Cyhalothrin]
- Cytotoxic EC20 (μM) YAS (yeast): > 200 µM
- Cytotoxic EC20 (μM) MDA-kb2 (MDA-kb2 cells): 51.4 µM

Compound: Spinosad
- Androgen EC20 (μM) MDA-kb2 (androgen receptor (AR) [1]; [3]): Neg
- Cytotoxic EC20 (μM) MDA-kb2 (MDA-kb2 cells): 13.1 µM
- Antiandrogen IC20 (μM) MDA-kb2 (androgen receptor (AR) [2]): Neg
